Molecular target: DNA primase DnaG (Escherichia coli) (UniProt P0ABS5)
Assay: Inhibition of Escherichia coli DNA primase after 1 hr by [3H]rNTPs incorporation assay

Chain of DNA primase DnaG (Escherichia coli) (P0ABS5 whole entry, looked up): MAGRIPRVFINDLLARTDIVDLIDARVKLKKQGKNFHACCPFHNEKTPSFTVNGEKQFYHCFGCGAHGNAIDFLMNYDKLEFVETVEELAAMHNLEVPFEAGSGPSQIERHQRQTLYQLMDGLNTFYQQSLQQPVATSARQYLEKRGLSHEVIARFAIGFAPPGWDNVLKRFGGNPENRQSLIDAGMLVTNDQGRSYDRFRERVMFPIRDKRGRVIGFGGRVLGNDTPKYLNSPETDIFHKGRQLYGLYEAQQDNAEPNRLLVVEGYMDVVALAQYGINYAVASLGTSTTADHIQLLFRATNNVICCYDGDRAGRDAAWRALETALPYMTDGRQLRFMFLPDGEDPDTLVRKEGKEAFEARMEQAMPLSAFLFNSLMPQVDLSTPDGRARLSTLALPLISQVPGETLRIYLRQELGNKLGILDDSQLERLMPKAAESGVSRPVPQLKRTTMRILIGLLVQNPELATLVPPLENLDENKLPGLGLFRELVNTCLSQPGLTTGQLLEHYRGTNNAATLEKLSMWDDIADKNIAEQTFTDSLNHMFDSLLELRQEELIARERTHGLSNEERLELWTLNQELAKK

With C[C@H]1CCCC[C@H]2C(=O)C=C[C@H](O)[C@@H]2CC(=O)O1 [(4S,8aR,12S,12aR)-12-hydroxy-4-methyl-4,5,6,7,8,8a-hexahydro-1H-benzo[d]oxecine-2,9(12H,12aH)-dione] the EC50 was 70 µM.
